We go through seven molecules from patent US9890185B2, “Urea derivatives useful as kinase inhibitors” (Respivert Limited, priority 2013, dated 2018).

Bounds are passed on as bounds.

One test has as its target Syk (Homo sapiens (Human), UniProt P43405). Description: Syk enzyme inhibition (FRET, Z-LYTE). It is filed as biochemical. The procedure: (§1) The enzyme inhibitory activities of compounds disclosed herein are determined by FRET using synthetic peptides labelled with both donor and acceptor fluorophores (Z-LYTE, Invitrogen Ltd., Paisley, UK).
(§2) The inhibitory activities of compounds of the invention against c-Src and Syk enzymes (Invitrogen), are evaluated in a similar fashion to that described hereinabove. The relevant enzyme (3000 ng/mL or 2000 ng/mL respectively, 2.5 μL) is incubated with the test compound (either 4 μg/mL, 0.4 μg/mL, 0.04 μg/mL, or 0.004 μg/mL, 2.5 μL each) for 2 hr at RT. The FRET peptides (8 μM, 2.5 μL), and appropriate ATP solutions (2.5 μL, 800 μM for c-Src, and 60 μM ATP for Syk) are then added to the enzymes/compound mixtures and incubated for 1 hr. Development reagent (protease, 5 μL) is added for 1 hr prior to detection in a fluorescence microplate reader (Varioskan® Flash, ThermoFisher Scientific).
(§3) In all cases, the site-specific protease cleaves non-phosphorylated peptide only and eliminates the FRET signal. Phosphorylation levels of each reaction are calculated using the ratio of coumarin emission (donor) over fluorescein emission (acceptor), for which high ratios indicate high phosphorylation and low ratios indicate low phosphorylation levels. The percentage inhibition of each reaction is calculated relative to non-inhibited control and the 50% inhibitory concentration (IC50 value) is then calculated from the concentration-response curve.

The test system of test [1] is PBMCs. The test can be described thus: LPS-induced IL-8 release in PBMC cells (assay b). It is filed as cell-based, human. Particulars: Homo sapiens, PBMC; LPS-stimulated PBMCs; read-out: IC50 Values for Inhibition of Cytokine Release, PBMCs IL-8. In a few lines:
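Human PBMCs from healthy donors, isolated by density gradient, were pretreated with compound for 2 h and then stimulated with 1 ng/mL LPS (E. coli 0111:B4) for 24 h at 37° C, 5% CO2. Supernatant IL-8 and TNFα were measured by sandwich ELISA, and IC50 was taken from the dose-response curve.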

The target of another test is GSK 3α (Homo sapiens (Human), UniProt P49840). Description: GSK 3α enzyme inhibition (FRET, Z-LYTE, Method 2). Type of test: biochemical. Particulars: read-out: IC50 Values for Enzyme Inhibition, GSK3α. In a few lines:
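Recombinant human GSK3α was preincubated with compound (stocks 4, 0.4, 0.04 or 0.004 μg/mL) at RT, 2 hr for Method 1 and 105 min for Method 2. FRET peptide (8 μM stock) and ATP (40 μM stock) were added for 1 hr, then protease development for 1 hr. IC50 was taken from concentration–response curves.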

The subject of a further test is d-U937 cells. Description: Accumulation of β catenin in d-U937 cells (assay m). The note with it: percentage relative to Reference Compound at 1 μg/mL. It is filed as cell-based, human. The procedure:
U937 cells, a human monocytic cell line, are differentiated into macrophage-type cells by incubation with PMA; (100 ng/mL) for between 48 to 72 hr. The cells are then incubated with either final concentrations of test compound or vehicle for 18 hr. The induction of β-catenin by the test compounds is stopped by replacing the media with 4% formaldehyde solution. Endogenous peroxide activity is neutralised by incubating with quenching buffer (100 μL, 0.1% sodium azide, 1% H2O2 in PBS with 0.05% Tween-20) for 20 min. The cells are washed with washing buffer (200 μL; PBS containing 0.05% Tween-20) and incubated with blocking solution (200 μL; 5% milk in PBS) for 1 hr, re-washed with washing buffer (200 μL) and then incubated overnight with anti-β-catenin antibody solution (50 μL) in 1% BSA/PBS (BD, Oxford, UK).
After washing with washing buffer (3×200 μL; PBS containing 0.05% Tween-20), cells are incubated with an HRP-conjugated secondary antibody solution (100 μL) in 1% BSA/PBS (Dako, Cambridge, UK) and the resultant signal is determined colourimetrically (OD: 450 nm with a reference wavelength of 655 nm) using TMB substrate (50 μL; R&D Systems, Abingdon, UK). This reaction is stopped by addition of 1N H2SO4 solution (50 μL). Cells are then washed with washing buffer and 2% crystal violet solution (50 μL) is applied for 30 min. After washing with washing buffer (3×200 μL), 1% SDS (100 μL) is added to each well and the plates are shaken lightly for 1 hr prior to measuring the absorbance at 595 nm (Varioskan® Flash, Thermo-Fisher Scientific).
The measured OD450-655 readings are corrected for cell number by dividing the OD450-655 by the OD595 readings.

Test [2] deals with PBMCs. The test can be described thus: Cell mitosis assay in PBMCs (assay g). It is filed as cell-based. The note with it: Homo sapiens, PBMC, test compound 5 μg/mL. The procedure:
Peripheral blood mononucleocytes (PBMCs) from healthy subjects are separated from whole blood (Quintiles, London, UK) using a density gradient (Histopaque®-1077, Sigma-Aldrich, Poole, UK). The PBMCs (3 million cells per sample) are subsequently treated with 2% PHA (phytohaemagglutinin, Sigma-Aldrich, Poole, UK) for 48 hr, followed by a 20 hr exposure to varying concentrations of test compounds. At 2 hr before collection, PBMCs are treated with demecolcine (0.1 μg/mL; Invitrogen, Paisley, UK) to arrest cells in metaphase. To observe mitotic cells, PBMCs are permeabilised and fixed by adding Intraprep (50 μL; Beckman Coulter, France), and stained with anti-phospho-histone 3 (0.26 ng/L; #9701; Cell Signalling, Danvers, Mass.) and propidium iodide (1 mg/mL; Sigma-Aldrich, Poole, UK) as previously described (Muehlbauer P. A. and Schuler M. J., Mutation Research, 2003, 537:117-130). Fluorescence is observed using an ATTUNE flow cytometer (Invitrogen, Paisley, UK), gating for lymphocytes. The percentage inhibition of mitosis is calculated for each treatment relative to vehicle (0.5% DMSO) treatment.

The target in test [3] is p38 MAPKα isoform (MAPK14) (Homo sapiens (Human), UniProt Q16539). Description: p38 MAPKα enzyme inhibition (FRET, Z-LYTE, Method 2). Type of test: biochemical. The procedure: as §1
Chain of p38 MAPKα isoform (MAPK14) (Q16539 whole entry, canonical isoform): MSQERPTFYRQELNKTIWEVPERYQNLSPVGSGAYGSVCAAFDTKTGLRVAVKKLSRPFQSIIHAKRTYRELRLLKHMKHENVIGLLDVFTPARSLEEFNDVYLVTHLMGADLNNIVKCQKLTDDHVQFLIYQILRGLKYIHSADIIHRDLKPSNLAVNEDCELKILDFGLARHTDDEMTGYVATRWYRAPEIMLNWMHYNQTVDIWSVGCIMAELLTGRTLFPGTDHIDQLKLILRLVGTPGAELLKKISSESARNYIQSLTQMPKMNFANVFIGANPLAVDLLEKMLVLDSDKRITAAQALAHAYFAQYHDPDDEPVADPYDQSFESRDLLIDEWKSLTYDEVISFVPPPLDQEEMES
The following two assay variants can be used for determination of p38 MAPKα inhibition.
The inhibitory activities of test compounds against the p38 MAPKα isoform (MAPK14: Invitrogen), are evaluated indirectly by determining the level of activation/phosphorylation of the down-stream molecule, MAPKAP-K2. The p38 MAPKα protein (80 ng/mL, 2.5 μL) is mixed with the test compound (2.5 μL of either 4 μg/mL, 0.4 μg/mL, 0.04 μg/mL or 0.004 μg/mL) for 2 hr at RT. […] The mixture is incubated for 1 hr at RT. Development reagent (protease, 5 μL) is added for 1 hr prior to detection in a fluorescence microplate reader (Varioskan® Flash, ThermoFisher Scientific).
This method follows the same steps as Method 1 above, but utilises a higher concentration of the p38 MAPKα protein (2.5 μL of 200 ng/mL protein instead of 2.5 μL of 80 ng/mL protein) for mixing with the test compound.
as §3

In another test the target is c-Src (Homo sapiens (Human), UniProt P12931). Description: c-Src enzyme inhibition (FRET, Z-LYTE). It is filed as biochemical. The procedure:
as §1, §2, §3

In test [4] the test system is PBMCs. The test can be described thus: IFN gamma release in CD3/CD28 stimulated PBMC cells (assay c). It is filed as cell-based. The note with it: Homo sapiens, read-out: IC50 Values for Inhibition of Cytokine Release, PBMCs IFNγ. The procedure:
PBMCs from healthy subjects are separated from whole blood using a density gradient (Lymphoprep, Axis-Shield Healthcare). Cells are added to a 96 well plate pre-coated with a mixture of CD3/CD28 monoclonal antibodies (0.3 μg/mL eBioscience and 3 μg/mL BD Pharmingen respectively). Compound at the desired concentration is then added to the wells and the plate left for 3 days under normal tissue culture conditions. Supernatants are harvested and IL-2 and IFN gamma release determined by Sandwich ELISA (Duo-set, R&D System). The IC50 is determined from the dose response curve.

Chain of c-Src (P12931 whole entry, looked up): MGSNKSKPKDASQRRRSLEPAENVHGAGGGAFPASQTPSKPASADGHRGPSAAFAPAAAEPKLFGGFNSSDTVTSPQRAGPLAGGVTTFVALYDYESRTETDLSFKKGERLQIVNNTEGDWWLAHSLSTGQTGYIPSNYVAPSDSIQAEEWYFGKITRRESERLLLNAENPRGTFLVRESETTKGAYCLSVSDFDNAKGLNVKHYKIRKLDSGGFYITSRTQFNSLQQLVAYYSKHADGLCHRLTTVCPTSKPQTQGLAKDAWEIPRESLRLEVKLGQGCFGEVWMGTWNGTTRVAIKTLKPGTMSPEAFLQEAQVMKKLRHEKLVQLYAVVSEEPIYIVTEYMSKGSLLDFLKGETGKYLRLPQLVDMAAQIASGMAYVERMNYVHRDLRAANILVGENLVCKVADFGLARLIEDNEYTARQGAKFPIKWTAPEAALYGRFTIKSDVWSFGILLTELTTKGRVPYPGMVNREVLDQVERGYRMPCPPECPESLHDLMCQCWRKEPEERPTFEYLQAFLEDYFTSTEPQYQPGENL
Chain of GSK 3α (P49840 whole entry): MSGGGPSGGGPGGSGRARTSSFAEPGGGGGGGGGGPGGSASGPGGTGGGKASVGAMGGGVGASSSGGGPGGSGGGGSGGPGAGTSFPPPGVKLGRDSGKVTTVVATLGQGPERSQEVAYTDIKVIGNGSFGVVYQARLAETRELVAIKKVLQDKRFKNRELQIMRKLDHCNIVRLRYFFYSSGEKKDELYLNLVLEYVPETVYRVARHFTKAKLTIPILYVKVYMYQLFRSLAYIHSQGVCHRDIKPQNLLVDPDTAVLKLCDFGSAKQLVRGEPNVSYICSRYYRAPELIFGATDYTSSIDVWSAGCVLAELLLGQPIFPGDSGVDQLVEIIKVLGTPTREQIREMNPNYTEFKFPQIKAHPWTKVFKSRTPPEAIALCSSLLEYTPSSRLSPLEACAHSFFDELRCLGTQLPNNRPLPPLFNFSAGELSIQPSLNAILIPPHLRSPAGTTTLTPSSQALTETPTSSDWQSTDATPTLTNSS

The IC50 is the midpoint of a concentration-inhibition curve. One may read the inhibition as the change of the read-out against control, counted positive when it falls. Lower therefore signals a response near the control. For the molecule `COc1c(NC(=O)Nc2ccc(Oc3ccnc(Nc4ccn(C)n4)c3)c3ccccc23)cc(C(C)(C)C)cc1P(C)(C)=O` [Example 36, 1-(5-(tert-Butyl)-3-(dimethylphosphoryl)-2-methoxyphenyl)-3-(4-((2-((1-methyl-1H-pyrazol-3-yl)amino)pyridin-4-yl)oxy)naphthalen-1-yl)urea], the IC50 on Syk worked out at 54 nM; in the test on PBMCs [1], 1.1 nM; at GSK 3α, 1070 nM; in test [3], 31 nM; against c-Src it was 27 nM. Also, the figures for the “% β-catenin induction” value with d-U937 cells (test compound 1 μg/mL), in the test with d-U937 cells (test compound 5 μg/mL) and in the test on d-U937 cells (test compound 10 μg/mL) were 17.5%, 84.5% and 27.5%, respectively. The same molecule gave an inhibition at 5 µg/mL with PBMCs [2] of 86.6%.

Take `COc1c(NC(=O)Nc2ccc(Oc3ccnc(Nc4cc(OCCN5CCOCC5)cc(C(F)(F)F)c4)c3)c3ccccc23)cc(C(C)(C)C)cc1[S+](C)[O-]` (stereo not drawn) [38(x), 1-(5-(tert-Butyl)-2-methoxy-3-(methylsulfinyl)phenyl)-3-(4-((2-((3-(2-morpholinoethoxy)-5-(trifluoromethyl)phenyl)amino)pyridin-4-yl)oxy)naphthalen-1-yl)urea]: the IC50 is 4.1 nM in the test with PBMCs [1] and greater than 12600 nM on GSK 3α. The inhibition at 5 µg/mL in the test on PBMCs [2] came to 35%.

In the case of `COc1c(CC(N)=O)cc(C(C)(C)C)cc1NC(=O)Nc1ccc(Oc2ccnc(Nc3cc(OCCN4CCOCC4)cc(C(F)(F)F)c3)c2)c2ccccc12` [38(w), 2-(5-(tert-Butyl)-2-methoxy-3-(3-(4-((2-((3-(2-morpholinoethoxy)-5-(trifluoromethyl)-phenyl)amino)pyridin-4-yl)oxy)naphthalen-1-yl)ureido)phenyl)acetamide], the IC50 in the test on PBMCs [1] is 4 nM; on GSK 3α, greater than 12700 nM. This molecule also yielded an inhibition at 5 µg/mL in the test with PBMCs [2] of 23.9%.

For `COc1c(NC(=O)Nc2ccc(Oc3ccnc(Nc4cnccn4)n3)c3ccccc23)cc(C(C)(C)C)cc1P(C)(C)=O` [15(q), 1-(5-(tert-butyl)-3-(dimethylphosphoryl)-2-methoxyphenyl)-3-(4-((2-(pyrazin-2-ylamino)pyrimidin-4-yl)oxy)naphthalen-1-yl)urea], the IC50 is greater than 1640 nM on Syk; 6.2 nM with PBMCs [1]; 3480 nM on GSK 3α; 1640 nM in the test with PBMCs [4]; 211 nM against c-Src. For the same molecule, the entries for the “% β-catenin induction” value with d-U937 cells (test compound 1 μg/mL), in the test on d-U937 cells (test compound 5 μg/mL) and in the test with d-U937 cells (test compound 10 μg/mL) were 5.0%, 9.5% and 2.5%, respectively. Besides, in the test on PBMCs [2], 5 µg/mL produced 12.9% inhibition.

In the case of `COc1cc(Nc2cc(Oc3ccc(NC(=O)Nc4cc(C(C)(C)C)cc(P(C)(C)=O)c4OC)c4ccccc34)ccn2)cc(OC)c1` [Example 27, 1-(5-(tert-Butyl)-3-(dimethylphosphoryl)-2-methoxyphenyl)-3-(4-((2-((3,5-dimethoxyphenyl)-amino)pyridin-4-yl)oxy)naphthalen-1-yl)urea], the IC50 on Syk was 137 nM; with PBMCs [1], 1 nM; at GSK 3α it was 11300 nM; in test [3], 230 nM; against c-Src it was 44 nM. In addition, the “% β-catenin induction” value in the test on d-U937 cells (test compound 1 μg/mL) came out at 5.7%; in the test with d-U937 cells (test compound 5 μg/mL), 13.0%; in the test on d-U937 cells (test compound 10 μg/mL), 13.3%. Besides, in the test with PBMCs [2], the inhibition at 5 µg/mL turned out to be 52%.

With `COc1cncc(Nc2cc(Oc3ccc(NC(=O)Nc4cc(C(C)(C)C)cc(P(C)(C)=O)c4OC)c4ccccc34)ccn2)c1` [Example 34, 1-(5-(tert-Butyl)-3-(dimethylphosphoryl)-2-methoxyphenyl)-3-(4-((2-((5-methoxypyridin-3-yl)amino)pyridin-4-yl)oxy)naphthalen-1-yl)urea], the IC50 against Syk came out at 228 nM; in the test on PBMCs [1], 1.2 nM; at GSK 3α, 1580 nM; in test [3] it was 56 nM; against c-Src, 43 nM. Besides, the “% β-catenin induction” value in the test with d-U937 cells (test compound 1 μg/mL) was 2.0%; in the test on d-U937 cells (test compound 5 μg/mL) it was 28.5%; in the test with d-U937 cells (test compound 10 μg/mL), 23.0%. In the test on PBMCs [2], this molecule gave an inhibition at 5 µg/mL of 81.1%.

Consider `COCCOCCOCCOc1cc(Nc2cc(Oc3ccc(NC(=O)Nc4cc(C(C)(C)C)cc(CP(C)(C)=O)c4OC)c4ccccc34)ccn2)cc(OC)c1` [Example 29, 1-(5-(tert-Butyl)-3-((dimethylphosphoryl)methyl)-2-methoxyphenyl)-3-(4-((2-((3-methoxy-5-(2-(2-(2-methoxyethoxy)ethoxy)ethoxy)phenyl)amino)pyridin-4-yl)oxy)naphthalen-1-yl)urea], for which the IC50 turned out to be 123 nM on Syk; 0.8 nM with PBMCs [1]; 5470 nM at GSK 3α; 31 nM in test [3]; 24 nM against c-Src. Besides, the entries for the “% β-catenin induction” value in the test with d-U937 cells (test compound 1 μg/mL), in the test with d-U937 cells (test compound 5 μg/mL) and in the test with d-U937 cells (test compound 10 μg/mL) were 6.5%, 9.0% and 45.0%, respectively. Also, the inhibition at 5 µg/mL in the test on PBMCs [2] was 49.4%.
